Results on 23 molecules are retold here after patent publication US20230041563A1, “N-(1,3,4-OXADIAZOL-2-YL)ARYLCARBOXAMIDES OR SALTS THEREOF, PREPARATION METHODS, HERBICIDAL COMPOSITIONS AND USES THEREOF” (priority 2018, published 2023).

The subject of this assay is weeds. As to the kind of experiment: Actual control effects and combined effects of mixtures of active ingredients (i) and (ii), stem-leaf treatment, Gowing method. It counts as in vivo. As to conditions: for pest or weed control at 27 g/ha: (ii) 1.8 g a.i./mu. The protocol: According to the actual control effect and the property of the herbicides, the balance of the formula and other factors, the optimal ratio was determined. In the calculation formula: X represents the fresh weight inhibition rate when the active ingredient (i) is used in an amount of P; and Y represents the fresh weight inhibition rate when the active ingredient (ii) is used in an amount of Q. The statistical results are shown in Tables 9-11 below.

Where [1] appears, read: Echinochloa phyllopogon, (ii) 3 g a.i./mu, 20 days.
The mark [2] stands for this setting: Monochoria vaginalis, (ii) 3 g a.i./mu, 20 days.
[3] abbreviates: Pontederia vaginalis, 480 h, Monochoria vaginalis, (ii) 5 g a.i./mu, stem-leaf treatment, 20 days, read-out: Control effect of (ii) alone at corresponding dose.
The mark [4] stands for this setting: 480 h, Echinochloa phyllopogon, (ii) 0.6 g a.i./mu, stem-leaf treatment, 20 days, read-out: Control effect of (ii) alone at corresponding dose.
Where [5] appears, read: 480 h, Echinochloa phyllopogon, (ii) 3 g a.i./mu, stem-leaf treatment, 20 days, read-out: Control effect of (ii) alone at corresponding dose.
Where [6] appears, read: Echinochloa phyllopogon, (ii) 0.6 g a.i./mu, 20 days.
The mark [7] stands for this setting: 480 h, Echinochloa phyllopogon, (ii) 15 g a.i./mu, stem-leaf treatment, 20 days, read-out: Control effect of (ii) alone at corresponding dose.
Setting [8] is: Echinochloa phyllopogon, (ii) 15 g a.i./mu, 20 days.
The mark [9] stands for this setting: Echinochloa phyllopogon, (ii) 8 g a.i./mu, 20 days.
Setting [10] is: 480 h, Cyperus difformis, 20 days, read-out: Control effect of (ii) alone at corresponding dose.
Setting [11] is: Pontederia vaginalis, 480 h, read-out: Control effect of (ii) alone at corresponding dose.

Like-named read-outs stand apart in the source and are kept apart here.

With `O=C1C(Cl)C(CCl)CN1c1cccc(C(F)(F)F)c1` (stereo not shown) [Fluorochloridone], the “Control effect of (ii) alone at corresponding dose” value (shortened to “Control effect of (ii) alone”) is, setting by setting: under setting [1], 9.1%; (Echinochloa phyllopogon, (ii) 3 g a.i./mu, stem-leaf treatment, 20 days) 9.1%; (Echinochloa phyllopogon, (ii) 30 g a.i./mu, 20 days) 52.3%.

With `Nc1c(Cl)c(F)nc(OCC(=O)O)c1Cl` [Fluroxypyr], the “Control effect of (ii) alone” value under setting [2] was found to be 60.3%. Moreover, the pest or weed control at 45 g/ha (Pontederia vaginalis, 480 h, Monochoria vaginalis, (ii) 3 g a.i./mu, stem-leaf treatment, 20 days, read-out: Control effect of (ii) alone at corresponding dose) amounted to 60.3%. Besides, the pest or weed control at 60 g/ha (Pontederia vaginalis, 480 h, Monochoria vaginalis, (ii) 4 g a.i./mu, 20 days, read-out: Control effect of (ii) alone at corresponding dose) amounted to 70.4%. The pest or weed control at 75 g/ha under setting [3] was found to be 73.4%.

Take `Cn1[nH]c(C2CC2)c(C(=O)c2ccc(C(F)(F)F)c(N3CCCCC3=O)c2Cl)c1=O` [Huanbifucaotong]: the “Control effect of (ii) alone” value (Digitaria sanguinalis, (ii) 3 g a.i./mu, stem-leaf treatment, 20 days) worked out at 6.2%; the “Control effect of (ii) alone” value (Leptochloa chinensis, (ii) 0.5 g a.i./mu, 20 days) was 9.2%; the “Control effect of (ii) alone” value (Leptochloa chinensis, (ii) 0.5 g a.i./mu, stem-leaf treatment, 20 days) came out at 9.2%; the “Control effect of (ii) alone” value (Leptochloa chinensis, (ii) 15 g a.i./mu, 20 days) is 76.2%.

Turning to `CCC1(CC2(c3cccc(Cl)c3)CO2)C(=O)c2ccccc2C1=O` (stereo not shown) [Indanofan], the “Control effect of (ii) alone” value (Monochoria vaginalis, (ii) 5 g a.i./mu, 20 days) was determined as 20.8%. Moreover, the pest or weed control at 75 g/ha under setting [3] is 20.8%. Also, the pest or weed control at 180 g/ha (Pontederia vaginalis, 480 h, Monochoria vaginalis, (ii) 12 g a.i./mu, 20 days, read-out: Control effect of (ii) alone at corresponding dose) was determined as 63.1%.

For `CC(C)c1ccc(NC(=O)N(C)C)cc1` [Isoproturon], the pest or weed control at 9 g/ha under setting [4] is 20.3%. The pest or weed control at 45 g/ha under setting [5] was 40.2%. Also, the “Control effect of (ii) alone” value is reported as 20.3% under setting [6] and 40.2% under setting [1].

`Cc1cc(Cl)ccc1OCC(=O)O` [MCPA]: the “Control effect of (ii) alone” value under setting [2] came to 28.2% and the “Control effect of (ii) alone” value (Monochoria vaginalis, (ii) 3 g a.i./mu, stem-leaf treatment, 20 days) worked out at 28.2%.

For the molecule `CN(C(=O)COc1nc2ccccc2s1)c1ccccc1` [Mefenacet], the pest or weed control at 45 g/ha under setting [5] was found to be 19.2%. Further, under setting [7], the pest or weed control at […] came to 46.7%. Also, the “Control effect of (ii) alone” value under setting [1] came to 19.2% and the “Control effect of (ii) alone” value under setting [8] was 46.7%.

Turning to `CS(=O)(=O)c1ccc(C(=O)C2C(=O)CCCC2=O)c([N+](=O)[O-])c1` [Mesotrione], the pest or weed control at 9 g/ha (480 h, Cyperus difformis, (ii) 0.6 g a.i./mu, 20 days, read-out: Control effect of (ii) alone at corresponding dose) was determined as 29.5%. Under “480 h, Cyperus difformis, (ii) 1 g a.i./mu, stem-leaf treatment, 20 days, read-out: Control effect of (ii) alone at corresponding dose”, the pest or weed control at 15 g/ha came out at 50.4%. For the same molecule, under “Cyperus difformis, (ii) 1 g a.i./mu, 20 days”, the “Control effect of (ii) alone” value is on record as 50.4%.

With `C[C@@H](Oc1ccc(Oc2nc3ccc(Cl)cc3o2)cc1)C(=O)N(C)c1ccccc1F` [Metamifop], the “Control effect of (ii) alone” value is, setting by setting: under setting [6], 6.8%; (Echinochloa phyllopogon, (ii) 0.6 g a.i./mu, stem-leaf treatment, 20 days) 6.8%; under setting [9], 60.9%; (Echinochloa phyllopogon, (ii) 8 g a.i./mu, stem-leaf treatment, 20 days) 60.9%.

For `COc1cc(OC)nc(NC(=O)NS(=O)(=O)c2c(C3=NOCC(C)O3)c(Cl)nn2C)n1` (stereo not shown) [Metazosulfuron], the “Control effect of (ii) alone” value worked out at 25.6% (Monochoria vaginalis, (ii) 1 g a.i./mu, 20 days); 25.6% (Monochoria vaginalis, (ii) 1 g a.i./mu, stem-leaf treatment, 20 days); 30.3% (Monochoria vaginalis, (ii) 1.2 g a.i./mu, 20 days).

In the case of `CCc1cccc(C)c1N(C(=O)CCl)C(C)COC` (stereo not shown) [Metolachlor], the pest or weed control at 45 g/ha by setting is: (480 h, Digitaria sanguinalis, (ii) 3 g a.i./mu, stem-leaf treatment, 20 days, read-out: Control effect of (ii) alone at corresponding dose) 15.3%; under setting [5], 7.8%. The pest or weed control at […] (480 h, Echinochloa phyllopogon, (ii) 15 g a.i./mu, 20 days, read-out: Control effect of (ii) alone at corresponding dose) was determined as 15.3%. Also, the “Control effect of (ii) alone” value under setting [1] is given as 7.8%.

As for `CSc1nnc(C(C)(C)C)c(=O)n1N` [Metribuzin], under “480 h, Echinochloa phyllopogon, (ii) 0.6 g a.i./mu, 20 days, read-out: Control effect of (ii) alone at corresponding dose”, the pest or weed control at 9 g/ha is 9.1%. Further, the pest or weed control at 45 g/ha under setting [5] turned out to be 32.3%. Moreover, the “Control effect of (ii) alone” value under setting [1] was determined as 32.3%.

On to `CCSC(=O)N1CCCCCC1` [Molinate], for which the pest or weed control at 45 g/ha under setting [5] amounted to 7.8%. Also, under “480 h, Echinochloa phyllopogon, (ii) 30 g a.i./mu, 20 days, read-out: Control effect of (ii) alone at corresponding dose”, the pest or weed control at 450 g/ha came out at 40.6%. Moreover, the “Control effect of (ii) alone” value under setting [1] was found to be 7.8%.

As for `CC(C)Oc1cc(-n2nc(C(C)(C)C)oc2=O)c(Cl)cc1Cl` [Oxadiazon], the pest or weed control at 45 g/ha under setting [5] was found to be 14.3%. The pest or weed control at […] under setting [7] is 41.3%. In addition, the “Control effect of (ii) alone” value by setting is: under setting [1], 14.3%; under setting [8], 41.3%.

Turning to `CC1=C(c2ccccc2)C(=O)N(C(C)(C)c2cc(Cl)cc(Cl)c2)CO1` [Oxaziclomefone], the pest or weed control at 9 g/ha under setting [4] is 12.5%. Further, under “480 h, Echinochloa phyllopogon, (ii) 1 g a.i./mu, stem-leaf treatment, 20 days, read-out: Control effect of (ii) alone at corresponding dose”, the pest or weed control at 15 g/ha is 18.7%. Besides, the “Control effect of (ii) alone” value is, setting by setting: under setting [6], 12.5%; (Echinochloa phyllopogon, (ii) 1 g a.i./mu, 20 days) 18.7%.

Take `CCOc1cc(Oc2ccc(C(F)(F)F)cc2Cl)ccc1[N+](=O)[O-]` [Oxyfluorfen]: the pest or weed control at 3 g/ha (480 h, Echinochloa phyllopogon, (ii) 0.2 g a.i./mu, stem-leaf treatment, 20 days, read-out: Control effect of (ii) alone at corresponding dose) was found to be 6.7%. Besides, for the setting “480 h, Echinochloa phyllopogon, (ii) 8 g a.i./mu, stem-leaf treatment, 20 days, read-out: Control effect of (ii) alone at corresponding dose”, the pest or weed control at 120 g/ha was found to be 76.5%. Further, the “Control effect of (ii) alone” value by setting is: (Echinochloa phyllopogon, (ii) 0.2 g a.i./mu, 20 days) 6.7%; under setting [9], 76.5%.

As for `CCC(CC)Nc1c([N+](=O)[O-])cc(C)c(C)c1[N+](=O)[O-]` [Pendimethalin], the pest or weed control at 27 g/ha under setting [10] stood at 6.3%. Besides, the pest or weed control at 450 g/ha (480 h, Cyperus difformis, (ii) 30 g a.i./mu, stem-leaf treatment, 20 days, read-out: Control effect of (ii) alone at corresponding dose) came to 40.3%. The “Control effect of (ii) alone” value (Cyperus difformis, (ii) 30 g a.i./mu, 20 days) worked out at 40.3%.

For `CC(C)=C1OC(=O)N(c2cc(OC3CCCC3)c(Cl)cc2F)C1=O` [Pentoxazone], the “Control effect of (ii) alone” value (Monochoria vaginalis, (ii) 10 g a.i./mu, 20 days) is 43.6%. Further, the pest or weed control at […] (Pontederia vaginalis, 480 h, Monochoria vaginalis, (ii) 0.5 g a.i./mu, 20 days, read-out: Control effect of (ii) alone at corresponding dose) turned out to be 6.4%. Further, the pest or weed control at 150 g/ha (Pontederia vaginalis, 480 h, Monochoria vaginalis, (ii) 10 g a.i./mu, stem-leaf treatment, 20 days, read-out: Control effect of (ii) alone at corresponding dose) is 43.6%.

Regarding `CCCOP(=S)(OCCC)SCC(=O)N1CCCCC1C` (stereo not shown) [Piperophos], the “Control effect of (ii) alone” value under setting [2] came to 9.9%. Also, under setting [11], the pest or weed control at 45 g/ha worked out at 9.9% and the pest or weed control at 450 g/ha amounted to 41.2%.

Take `CCCOCCN(C(=O)CCl)c1c(CC)cccc1CC` [Pretilachlor]: the pest or weed control at 45 g/ha under setting [5] amounted to 15.2%. Also, the pest or weed control at […] under setting [7] came out at 43.2%. In addition, the “Control effect of (ii) alone” value by setting is: under setting [1], 15.2%; under setting [8], 43.2%.

`CSc1nc(NC(C)C)nc(NC(C)C)n1` [Prometryn]: the pest or weed control at 9 g/ha under setting [4] worked out at 21.5%. Also, the pest or weed control at 300 g/ha (480 h, Echinochloa phyllopogon, (ii) 20 g a.i./mu, stem-leaf treatment, 20 days, read-out: Control effect of (ii) alone at corresponding dose) amounted to 68.2%. Also, the “Control effect of (ii) alone” value by setting is: under setting [6], 21.5%; (Echinochloa phyllopogon, (ii) 20 g a.i./mu, 20 days) 68.2%.

As for `CCC(=O)Nc1ccc(Cl)c(Cl)c1` [Propanil], the pest or weed control at 27 g/ha under setting [10] was 9.2%. Besides, the pest or weed control at […] (480 h, Cyperus difformis, (ii) 15 g a.i./mu, stem-leaf treatment, 20 days, read-out: Control effect of (ii) alone at corresponding dose) was 46.2%. Moreover, the “Control effect of (ii) alone” value (Cyperus difformis, (ii) 15 g a.i./mu, 20 days) is 46.2%.

In the case of `CCCc1ccc2nc(Cl)c(S(=O)(=O)NC(=O)Nc3nc(OC)cc(OC)n3)n2n1` [Propyrisulfuron], the “Control effect of (ii) alone” value by setting is: (Cyperus difformis, (ii) 0.6 g a.i./mu, 20 days) 19.5%; (Cyperus difformis, (ii) 1.5 g a.i./mu, 20 days) 46.3%; (Cyperus difformis, (ii) 1.5 g a.i./mu, stem-leaf treatment, 20 days) 46.3%.
